Tested on: live tissue containing AD7C-NTP
Experiment: Prevention/inhibition of AD7C-NTP-induced necrosis of live tissue by Harlil sequences injected with AD7C-NTP into rats, histopathology
Assay type: in vivo
Settings: injected together with AD7C-NTP 100 ng/mL-10 µg/mL, 24 hours, compared to control samples injected with AD7C-NTP alone
Protocol: AD7C-NTP was obtained as described above in Example 1.
The Harlil sequences NTP-1, NTP-3, and NTP-7 prepared in accordance with Example 2 above were used in this example.
Recombinant AD7C-NTP samples 100 ng/mL-10 µg/mL were incubated at room temperature for 5 minutes to one hour with the aforementioned Harlil sequences and then injected into rats as described in Example 1.
Alternatively, a solution of the Harlil sequence was made up in concentrations ranging from 1 microgram/mL to 1 milligram/mL. Solutions containing the recombinant AD7C-NTP also were made up as described above, without the addition of the Harlil sequence. The animals were injected with about 100 microliters of the AD7C-NTP solution, and with about 100 microliters of the Harlil solution.
The 24 individual foci of infiltration were excised, fixed in 10% formalin, embedded in paraffin, and stained and examined by standard histopathological methods.
Similar groups of control rats were injected with (1) AD7C-NTP alone as described in Example 1, (2) bovine serum albumin in saline, (3) normal human serum, and (4) physiological saline, and examined and sacrificed as above, with the excised foci of injection treated as above.

## L H A R L C L A N F C G R N R V (LHARLCLANFCGRNRV) [NTP-1]
  reduction in tissue necrosis: over 95%

— patent EP1541166B1, “Preventing cell death using segments of neural thread proteins” (NYMOX CORPORATION, priority 2001, dated 2007)
